Measurements published in US20130017616A1, “Methods For Treating Inflammation” (Vanderbilt University - Center for Technology Transfer and …, priority 2011, published 2013).

Experiments:
RNase [1] = biological target: T1, RNase (Bos taurus, UniProt P61823); assay: Measurements of RNase activity after incubation with HOCl, HOBr or PM; type: biochemical; conditions: for effect on RNase activity: RNase 15 μg/mL incubated with different concentrations of the substance at 37° C. for 2 h
T1 construct: purchased Worthington Biochemical Corporation
T1 sequence (P61823 27-150): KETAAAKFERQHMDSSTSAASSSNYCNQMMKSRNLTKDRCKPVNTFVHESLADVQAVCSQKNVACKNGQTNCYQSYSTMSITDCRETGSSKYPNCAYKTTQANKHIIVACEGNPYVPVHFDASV
Description: FIG. 1. […] RNase (15 μg/mL) was incubated alone or with different concentrations of HOCl, HOBr or PM at 37° C. for 2 h. Enzymatic activity was determined as described under Experimental Procedures.
Measurements of RNase Activity—RNase activity was determined by measuring the formation of acid-soluble oligonucleotide as described by Kalnitsky et al, with some modifications previously described by Voziyan et al. For the assay, 100 μL of 3 μg/mL RNase in 100 mM sodium acetate, pH 5.0, was mixed with 100 μL of 1% yeast RNA in the same buffer. After the incubation at 37° C. for 5 min, the reaction was stopped by the addition of 100 μL of an ice-cold solution of 0.8% lanthanum nitrate in 18% perchloric acid. The incubations were kept on ice for 5 min to ensure complete precipitation of undigested RNA and then centrifuged at 12000 g for 10 min. An aliquot of the supernatant (20 μL) was diluted to 1 mL with distilled water, the amount of digested (solubilized) RNA was determined by measuring the absorbance at 260 nm. The activity of RNase incubated either alone or with PM or an amino acid substitute at 37° C. was monitored separately and used as a reference for each incubation time.

EHS collagen IV = assay: Chlorination of type IV collagen by HOCl, N-chloramine assay; type: biochemical, murine; conditions: HOCl with equimolar PM, 1 h
Description: N-Chloramine Assay/ TMB Assay—The presence of N-chloramines were determined by the method of Witko et al. [3] and Dypbukt et al. [4]. The former method is based on the colorimetric measurement of triiodide ions formed by the oxidation of potassium iodide (KI) in solution. Chloroamine-T, a commercially available source of N-chloramine, was used to calibrate the assay. 100 mM chloramine-T solution was made fresh in distilled H2O. The 100 mM chloramines-T was diluted to final concentrations ranging from 20 to 100 μM immediately before use. The direct oxidation of Kl by NaOCl was also determined and these values were subtracted as background from the corresponding treated samples. The resulting difference represented the amount of N-chloramine present in each sample. In the latter method the developing reagent was composed of 2 mM TMB in 400 mM acetate buffer, pH 5.4, containing 10% dimethlyforamide and 100 μM sodium iodide. This solution was prepared by dissolving TMB in 100% DMF, diluting with acetate buffer to get the desired final concentration of TMB, and then adding sodium iodide. When the developing reagent was mixed with the solutions of chloramines, the final concentration of TMB was always at least 10 times that of the concentration of chloramines. This prevented further oxidation of the blue product. […]

RNase [2] = assay: LC-MS/MS analysis of RNase modifications (halogenation of Tyr-92 and Tyr-97); type: biochemical; conditions: RNase with HOCl or HOBr, with or without PM
Description: FIG. 3A. Modification of functionally important chlorinated Tyr species (Y-92 and Y-97) in RNase by HOCl and protection by PM. *P<0.05, control vs. HOCl (n=3); **P<0.05, HOCl vs. HOCl+PM (n=3).
FIG. 3B. Modification of functionally important chlorinated Tyr species (Y-92 and Y-97) in RNase by HOBr and protection by PM. *P<0.05, control vs. HOBr; **P<0.05, HOBr vs. HOBr+PM.
LC-MS/MS analysis of RNase modifications—The site-specific modifications in RNase were analyzed by tandem mass spectrometry. The samples were prepared using the spin filter protocol for proteomic analysis. RNase samples were digested either with trypsin. The data-dependent scanning was performed using a LTQ Orbitrap^TM (Thermo Fischer Scientific, San Jose, Calif.) mass spectrometer equipped with an Eksigent AS1 autosampler and an Eksigent 1D+HPLC pump attached directly to the instrument's nanospray source. The peptides were separated on a capillary tip, 100 μm×18 cm, packed with C18 resin (Jupiter C18, 3 μm, 300 Å, Phenomenex, Torrance, Calif.) using an inline vented trapping column that was 100 μm×6 cm. […]
The data generated from the data-dependent LC-MS/MS experiments were analyzed using Sequest. […] The peak containing the peptide of interest was extracted from the chromatogram and the area of the peak was determined using Xcalibur™ software. […]

[3] = system: integrin α1β1 binding to collagen IV; assay: Modification of collagen IV and integrin binding assay (solid phase); design: species or system Human; conditions: 0.1 mM HOCl or HOBr with 0.1 mM PM, 1 h; integrin 1 μg/mL, 2 h at 30° C.
Description: FIG. 6B. EHS Collagen IV was coated onto 96-well plate overnight at 4° C. Collagen IV was incubated with 0.1 mM HOCl or HOBr either with or without 0.1 mM PM for 1 h at 37° C. Collagen IV was then incubated with 1 μg/mL of integrin α1β1 for 2 h at 30° C. Integrin binding was detected in solid phase binding assay using integrin α1β1 antibody. The bars represent background-subtracted […] binding±SD (n=4). *P<0.05, control vs. HOCl or HOBr; **P<0.05, HOCl or HOBr vs. HOCl+PM or HOBr+PM.
Modification of Collagen IV and Integrin Binding Assay—20 μg/mL of type IV collagen in 20 mM sodium phosphate buffer, 7.5, was immobilized on 96 well plates at 4° C. overnight. Nonspecific binding sites were blocked with 1% BSA in TBS for 2 hr at 30° C. as previously described. Wells were washed five times with either TBS or 100 mM sodium phosphate, pH 7.5, before being incubated in the same buffer with or without HOCl/HOBr alone or HOCl/l HOBr plus PM. […] After extensive washing, the bound antibodies were detected using alkaline phosphatase-conjugated anti-mouse IgG antibodies. p-Nitrophenyl phosphate substrate (Sigma) was added to the wells, and absorbance was read at 410 nm. Readings from the samples containing EDTA were subtracted from all the data to obtain the baseline corrected magnesium dependent binding.

effect on RNase activity (RNase [1])	protection of RNase enzymatic activity against hypohalous acids (RNase [1]; RNase with HOCl or HOBr plus PM)	halogenation of Tyr-92 and Tyr-97 residues in RNase (RNase [2])	binding of integrin α1β1 to collagen IV in the presence of HOCl or HOBr [3]	Structure (SMILES)	chlorination of collagen IV by hypochlorous acid (protein chloramine content) (EHS collagen IV)
inhibit RNase activity	–	–	–	OCl [HOCl, hypochlorous acid]	–
no effect on activity	protected enzymatic activity	inhibited halogenation	protected binding	Cc1ncc(CO)c(CN)c1O [PM, Pyridoxamine]	significantly inhibited chlorination

Structure (SMILES)	effect on RNase activity (RNase [1])	protection of RNase enzymatic activity against hypohalous acids (RNase [1]; RNase with HOCl or HOBr plus PM)	halogenation of Tyr-92 and Tyr-97 residues in RNase (RNase [2])	binding of integrin α1β1 to collagen IV in the presence of HOCl or HOBr [3]	chlorination of collagen IV by hypochlorous acid (protein chloramine content) (EHS collagen IV)
OBr [HOBr, hypobromous acid]	inhibit RNase activity	–	–	–	–
